Measured values from patent US4965272A, “Antimicrobial compound and compositions particularly effective against candida albicans” (priority 1988, dated 1990).
Values after ≈ are worked out from the molar mass of the structure shown.

What was measured:
[1] = humans, under varying conditions; cited from earlier work
Candida albicans [2] = experiment: in vivo testing, disseminated infection of Candida albicans in outbred mice
From the text: In the in vivo testing of the inventive compound and compositions, outbred mice were used. A disseminated infection of Candida albicansin the test animals was achieved by intravenous injection of 0.5 to 1×10^6 CFU of the pathogen. The organism is rapidly cleared from the blood and most tissues, except the kidney which is the primary target organ for the disseminated infection in mice. It is known than an inoculum of 0.5×10^6 CFU will cause death of outbred mice within 10-14 days due to disseminated infection if untreated. The vehicle used for administering the compound of the invention was a mixture consisting of 50% USP water, 40% propylene glycol and 10% absolute ethonol.

Candida albicans 10231 = experiment: MIC, twofold serial broth dilution assay; format: cell-based; details: ATCC10231; Candida albicans ATCC 10231; 24 and 48 hours at 37°
Protocol: (§1) Candida albicansNIH B311 used to induce experimental disseminated candidiasis was used for the initial qualitative evaluation of anticandidal activity. The organism was grown in Sabouraud-dextrose broth (SDB) for 14 hours at 37°, at which time the cells were harvested by centrifugation (4°, 2000 rpm, 3 min). After centrifugation, the cells were washed and suspended in sterile 0.9% saline to give a final concentration of […] colony forming units (CFU) per ml (adjusted using a hemocytometer). Culture plates (15×100 mm) for the qualitative assay were prepared from 25 ml of Sabouraud-dextrose agar. Using sterile cotton swabs, the plates were streaked with the suspension ([…] of Candida albicansB311. Cylindrical plugs were removed from the agar plates by means of a sterile cork borer to produce wells with a diameter of approximately 11 mm. To the well was added 100 μl of solution or suspension of an extract, fraction, or pure compound. Crude extracts and fractions were tested at a concentration of 20 mg/ml, whereas pure compounds were tested at 1 mg/ml. When solvents other than H2 O, EtOH, MeOH, DMSO, DMF, or Me2 CO were required to dissolve extracts or compounds, solvent blanks were included. Anticandidal activity was recorded as the width (in mm) of the zone of inhibition following incubation of the plates at 37° for 24 hours. The antifungal agents amphotericin-B and ketoconazole were included as standards in each assay.
(§2) The method used to determine the minimum inhibitory concentration (MIC) of the inventive compound was a twofold serial broth dilution assay in yeast nitrogen broth. In addition to Candida albicansB311, the MIC values for eupolauridine were also determined for two additional strains of Candida albicans: ATCC 10231 and a clinical isolate, designated WH. The inventive compound was initially tested using a concentration of 100 μg/ml in the first tube. The compound was added to sterile Sabouraud-dextrose broth as a solution in DMSO. The inoculum for the MIC determination was prepared as described for qualitative evaluation. […]

Candida albicans WH = experiment: MIC, twofold serial broth dilution assay; format: cell-based; details: Candida albicans clinical isolate WH; 24 and 48 hours at 37°
Protocol: as §1, §2

Candida albicans B311 = experiment: MIC, twofold serial broth dilution assay; format: cell-based; details: 24 and 48 hours at 37°
Protocol: as §1, §2

[3] = test system: Aspergillus fumigatus 26934; experiment: MIC, twofold serial broth dilution assay; format: cell-based
[4] = test system: Trichophyton mentagrophytes 9972; experiment: MIC, twofold serial broth dilution assay; format: cell-based
Candida albicans [5] = experiment: anticandidal activity, agar-well diffusion assay (zone of inhibition); format: cell-based; details: three test strains of Candida albicans
Protocol: In vitro evaluation of the anticandidal activity of the inventive compound and compositions was carried out using the agar-well diffusion assay as follows:
Candida albicansNIH B311 used to induce experimental disseminated candidiasis was used for the initial qualitative evaluation of anticandidal activity. The organism was grown in Sabouraud-dextrose broth (SDB) for 14 hours at 37°, at which time the cells were harvested by centrifugation (4°, 2000 rpm, 3 min). After centrifugation, the cells were washed and suspended in sterile 0.9% saline to give a final concentration of […] colony forming units (CFU) per ml (adjusted using a hemocytometer). Culture plates (15×100 mm) for the qualitative assay were prepared from 25 ml of Sabouraud-dextrose agar. […] Anticandidal activity was recorded as the width (in mm) of the zone of inhibition following incubation of the plates at 37° for 24 hours. […]

[6] = test system: Cryptococcus neoformans 32264; experiment: MIC, twofold serial broth dilution assay; format: cell-based
[7] = test system: Saccharomyces cerevisiae 9763; experiment: MIC, twofold serial broth dilution assay; format: cell-based
Aspergillus flavus 9170 = experiment: MIC, twofold serial broth dilution assay; format: cell-based

Question: With C[C@@H]1[C@H](O)[C@@H](C)/C=C/C=C/C=C/C=C/C=C/C=C/C=C/[C@H](O[C@@H]2O[C@H](C)[C@@H](O)[C@H](N)[C@@H]2O)C[C@@H]2O[C@](O)(C[C@@H](O)C[C@@H](O)[C@H](O)CC[C@@H](O)C[C@@H](O)CC(=O)O[C@H]1C)C[C@H](O)[C@H]2C(=O)O [Amphotericin-B, amphotericin-B, reference compound] as the compound, how does the side effects [1] read?
Answer: fever, anorexia, nausea and vomiting, diarrhea, muscle and joint pain, phlebitis and thiophlebitis, anemia, abnormal renal function, anuria, cardiovascular distress, hypertension and hypotension

Question: What about the “Number dead/Total” value (Candida albicans [2]; 2.5 mg/kg, day 1) of the same compound?
Answer: 0/10

Question: And the “Number dead/Total” value (Candida albicans [2]; 2.5 mg/kg, day 2)?
Answer: 0/10

Question: And the “Number dead/Total” value (Candida albicans [2]; 2.5 mg/kg, day 3)?
Answer: 0/10

Question: What about the “Number dead/Total” value (Candida albicans [2]; 2.5 mg/kg, day 4) of the same compound?
Answer: 0/10

Question: What about the “Number dead/Total” value (Candida albicans [2]; 2.5 mg/kg, day 5) of the same compound?
Answer: 0/10

Question: What about the “Number dead/Total” value (Candida albicans [2]; 2.5 mg/kg, day 6) of the same compound?
Answer: 1/10

Question: And the “Number dead/Total” value (Candida albicans [2]; 2.5 mg/kg, day 7)?
Answer: 2/10

Question: What about the “Number dead/Total” value (Candida albicans [2]; 2.5 mg/kg, day 8) of the same compound?
Answer: 2/10

Question: What about the “Number dead/Total” value (Candida albicans [2]; 2.5 mg/kg, day 9) of the same compound?
Answer: 4/10

Question: And the “Number dead/Total” value (Candida albicans [2]; 2.5 mg/kg, day 10)?
Answer: 4/10

Question: With c1ccc2c(c1)-c1nccc3ccnc-2c13 [Eupolauridine, eupolauridine] as the compound, how does the MIC (Candida albicans 10231) read?
Answer: 1.56 mg/L (≈ 7.64 µM)

Question: What about the MIC (Candida albicans WH) of the same compound?
Answer: 1.56 mg/L (≈ 7.64 µM)

Question: What about the MIC (Candida albicans B311) of the same compound?
Answer: 1.56 mg/L (≈ 7.64 µM)

Question: And the MIC [3]?
Answer: 6.25 mg/L (≈ 30.6 µM)

Question: And the MIC [4]?
Answer: 1.56 mg/L (≈ 7.64 µM)

Question: What about the zone of inhibition (Candida albicans [5]) of the same compound?
Answer: remarkable zone of inhibition

Question: What about the MIC [6] of the same compound?
Answer: 1.56 mg/L (≈ 7.64 µM)

Question: What about the MIC [7] of the same compound?
Answer: 3.12 mg/L (≈ 15.3 µM)

Question: What about the MIC (Aspergillus flavus 9170) of the same compound?
Answer: 6.25 mg/L (≈ 30.6 µM)

Question: What about the “Number dead/Total” value (Candida albicans [2]; 2 mg/kg, day 1) of the same compound?
Answer: 0/10

Question: What about the “Number dead/Total” value (Candida albicans [2]; 2 mg/kg, day 2) of the same compound?
Answer: 0/10

Question: And the “Number dead/Total” value (Candida albicans [2]; 2 mg/kg, day 3)?
Answer: 0/10

Question: And the “Number dead/Total” value (Candida albicans [2]; 2 mg/kg, day 4)?
Answer: 0/10

Question: What about the “Number dead/Total” value (Candida albicans [2]; 2 mg/kg, day 5) of the same compound?
Answer: 0/10

Question: And the “Number dead/Total” value (Candida albicans [2]; 2 mg/kg, day 6)?
Answer: 1/10

Question: What about the “Number dead/Total” value (Candida albicans [2]; 2 mg/kg, day 7) of the same compound?
Answer: 3/10

Question: What about the “Number dead/Total” value (Candida albicans [2]; 2 mg/kg, day 8) of the same compound?
Answer: 4/10

Question: What about the “Number dead/Total” value (Candida albicans [2]; 2 mg/kg, day 9) of the same compound?
Answer: 4/10

Question: And the “Number dead/Total” value (Candida albicans [2]; 2 mg/kg, day 10)?
Answer: 7/10

Question: What about the “Number dead/Total” value (Candida albicans [2]; 7 mg/kg, day 1) of the same compound?
Answer: 0/10

Question: And the “Number dead/Total” value (Candida albicans [2]; 7 mg/kg, day 2)?
Answer: 0/10

Question: And the “Number dead/Total” value (Candida albicans [2]; 7 mg/kg, day 3)?
Answer: 2/10

Question: And the “Number dead/Total” value (Candida albicans [2]; 7 mg/kg, day 4)?
Answer: 2/10

Question: What about the “Number dead/Total” value (Candida albicans [2]; 7 mg/kg, day 5) of the same compound?
Answer: 2/10

Question: What about the “Number dead/Total” value (Candida albicans [2]; 7 mg/kg, day 6) of the same compound?
Answer: 3/10

Question: What about the “Number dead/Total” value (Candida albicans [2]; 7 mg/kg, day 7) of the same compound?
Answer: 3/10

Question: What about the “Number dead/Total” value (Candida albicans [2]; 7 mg/kg, day 8) of the same compound?
Answer: 3/10

Question: What about the “Number dead/Total” value (Candida albicans [2]; 7 mg/kg, day 9) of the same compound?
Answer: 4/10

Question: What about the “Number dead/Total” value (Candida albicans [2]; 7 mg/kg, day 10) of the same compound?
Answer: 7/10

Question: And the animals survived (Candida albicans [2]; 20 mg/kg body weight, 10 days)?
Answer: 50%

Question: What about the “survival compared with amphotericin-B” value (Candida albicans [2]; 20 mg/kg body weight, 10 days) of the same compound?
Answer: not statistically significantly different from the results with amphotericin-B

Question: What about the “Number dead/Total” value (Candida albicans [2]; 20 mg/kg, day 1) of the same compound?
Answer: 0/10

Question: And the “Number dead/Total” value (Candida albicans [2]; 20 mg/kg, day 2)?
Answer: 0/10

Question: What about the “Number dead/Total” value (Candida albicans [2]; 20 mg/kg, day 3) of the same compound?
Answer: 0/10

Question: And the “Number dead/Total” value (Candida albicans [2]; 20 mg/kg, day 4)?
Answer: 0/10

Question: What about the “Number dead/Total” value (Candida albicans [2]; 20 mg/kg, day 5) of the same compound?
Answer: 0/10

Question: And the “Number dead/Total” value (Candida albicans [2]; 20 mg/kg, day 6)?
Answer: 0/10

Question: And the “Number dead/Total” value (Candida albicans [2]; 20 mg/kg, day 7)?
Answer: 1/10

Question: What about the “Number dead/Total” value (Candida albicans [2]; 20 mg/kg, day 8) of the same compound?
Answer: 3/10

Question: What about the “Number dead/Total” value (Candida albicans [2]; 20 mg/kg, day 9) of the same compound?
Answer: 3/10

Question: What about the “Number dead/Total” value (Candida albicans [2]; 20 mg/kg, day 10) of the same compound?
Answer: 5/10
